Reference: US20170354617A1, “METHOD OF TREATING OR PREVENTING OSTEOPOROSIS” (Research Foundation of the City University of New York, priority 2016, published 2017)

Key:
[1] = test system: estrogen-deficient (OVX) mice, post-menopausal type bone loss; assay: Ovariectomy (OVX) estrogen-depletion bone loss prevention in mice; type: in vivo
From the text: Young adult mice were subjected to surgical ovariectomy (OVX) to deplete estrogen. This is widely accepted model for inducing post-menopausal type bone loss. It is the standard used by pharmaceutical companies in preclinical trials and is required by the FDA to confirm efficacy of an agent in preventing bone loss. Seven sham control mice received a surgical incision and wound closure but ovaries were left intact. Mice were return to their cages after surgery. Six “MB” mice received methylene blue in the cage water (0.2% in cage water supply starting 24 hours before surgery) which they were allowed to consume ad libitum for the duration of the study (three months); the remainder of the mice received normal cage water. Mice were sacrificed at three months post-OVX and bones were examined using microCT. The results are depicted in FIG. 2A and FIG. 2B which show bone changes with estrogen loss (OVX) were prevented by systemic treatment with methylene blue (MB). FIG. 2B is a graph of Bone Volume over Total Volume (BV/TV) for the groups of mice.

[2] = test system: aged mouse femur, age-related bone loss; assay: Age-related (Type 2) osteoporosis in aged mice, one year treatment; type: in vivo
Experimental: A one year old mouse is biologically similar to a 45-50 year-old human. Starting at 1 year of age, methylene blue was administered in the cage water supply (0.2% by weight) for one year to three male mice. Control mice received normal water. Animals were free to consume water and food ad libitum. Bones were examined when the mice were two years old, which is similar to a 75-80 year-old person.
FIG. 3A is a micro-Xray image of aged mouse femur from mouse with no treatment. Large holes or pores are clearly seen in the bone, as is thinning of the bone cortex. This is normal age-related osteoporosis.
FIG. 3B is a micro-Xray image of aged mouse femur from mouse after one year duration methylene blue treatment. No increases in porosity or cortex thinning are seen.

[3] = test system: bipolar manic-depressive patients; details: 300 mg per day for one year; cited from earlier work
[4] = test system: chronic renal calculus disease; details: 65 mg taken three times a day; cited from earlier work
[5] = test system: rats; details: injected at a dose of 1 mg per kg; cited from earlier work

In the case of CN(C)c1ccc2nc3ccc(=[N+](C)C)cc-3sc2c1 [methylene blue], the “Bone loss, Bone Volume over Total Volume (BV/TV)” value ([1]; 0.2% in cage water ad libitum, three months post-OVX, microCT of distal femur, OVX without treatment approx. 40% reduction in bone volume) is reported as “almost completely prevented”, the Bone mechanical property ([1]; mice model of estrogen removal) is reported as “maintained” and the Bone mineral density ([1]; mice model of estrogen removal) is reported as “maintained”. For the same compound, the “Cancellous bone loss after estrogen removal” value ([1]; mice model of estrogen removal) was “prevent cancellous bone loss”, the Osteocyte apoptosis ([1]; mice model of estrogen removal) was “prevent osteocyte apoptosis” and the “Oxidative stress in bone cells” value ([1]; mice model of estrogen removal) was “protect bone cells from oxidative stress”. The “Bone porosity compared to bones from control mice” value ([2]; 0.2% by weight in cage water for one year from 1 year of age, male mice, femur examined at two years old, FIG. 4) was “about half”, the “Cortex thinning (micro-Xray image)” value ([2]; 0.2% by weight in cage water for one year, aged mouse femur, FIG. 3B) was “prevented the cortex or shell of the bone from thinning” and the “Depression compared with placebo” value [3] was “significantly less depressed”. For the same compound, the “Management of chronic renal calculus disease” value [4] was “useful” and the “Brain oxidative metabolism and memory retention” value [5] was “improved”.
